In US8946478B2, “Benzamide derivative with anticancer activity and preparation method and use thereof” (Zhejiang Hisun Pharmaceutical Co., Ltd., priority 2010, dated 2015):

Test system: 18 tumor cell strains
Experiment: In vitro efficacy screening, summary over the tumor cell strains
Assay type: cell-based, human

SMILES: C#Cc1ccc(C(N)=O)cc1[N+](=O)[O-] [Compound I-1, 4-ethynyl-3-nitrobenzamide]
- efficacy relative to the positive drug BSI-201 (in the measured 18 tumor cell strains): 10 times
- inhibitory effects on tumor cell proliferation (in words) (in vitro screening, BSI-201 as positive drug): have inhibitory effects on tumor cell proliferation
